According to ChEMBL document CHEMBL4177564, “Pyrrolo[2,1-f][1,2,4]triazines: From C-nucleosides to kinases and back again, the remarkable journey of a versatile nitrogen heterocycle” (Bioorg Med Chem Lett, 2017):
pIC50: −log10 of the molar value.

Key:
[1] = target: Potassium voltage-gated channel subfamily A member 5 (Homo sapiens) (UniProt P22460); assay: Inhibition of human Kv1.5 expressed in mouse L929 cells assessed as reduction in channel current at 0.3 uM by patch clamp method relative to control; type: cell-based
Chain of Potassium voltage-gated channel subfamily A member 5 (Homo sapiens) (P22460 whole entry, the tested form may be a part): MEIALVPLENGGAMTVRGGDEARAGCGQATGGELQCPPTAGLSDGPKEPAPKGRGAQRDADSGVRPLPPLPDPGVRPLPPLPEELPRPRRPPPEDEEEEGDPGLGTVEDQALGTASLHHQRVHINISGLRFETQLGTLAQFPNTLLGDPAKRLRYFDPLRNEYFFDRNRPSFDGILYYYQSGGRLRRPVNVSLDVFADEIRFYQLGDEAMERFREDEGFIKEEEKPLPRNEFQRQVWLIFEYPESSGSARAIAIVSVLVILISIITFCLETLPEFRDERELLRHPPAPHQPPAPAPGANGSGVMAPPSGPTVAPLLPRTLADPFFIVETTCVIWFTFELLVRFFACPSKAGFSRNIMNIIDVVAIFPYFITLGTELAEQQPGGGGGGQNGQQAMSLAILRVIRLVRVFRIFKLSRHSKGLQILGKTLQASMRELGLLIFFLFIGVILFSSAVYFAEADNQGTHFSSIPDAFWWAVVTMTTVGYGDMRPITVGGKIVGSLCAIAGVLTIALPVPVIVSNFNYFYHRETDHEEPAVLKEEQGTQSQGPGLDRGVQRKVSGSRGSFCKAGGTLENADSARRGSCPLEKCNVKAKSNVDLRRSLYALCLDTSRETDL

[2] = target: Ubiquitin carboxyl-terminal hydrolase 7 (Homo sapiens, UniProt Q93009); assay: Inhibition of His6-tagged USP7 (208 to 1102 residues) (unknown origin) using ubiquitin-rhodamine110 as substrate preincubated for 30 mins followed by substrate addition measured after 20 mins by fluorescence assay
Chain of Ubiquitin carboxyl-terminal hydrolase 7 (Q93009 whole entry, the tested form may be a part): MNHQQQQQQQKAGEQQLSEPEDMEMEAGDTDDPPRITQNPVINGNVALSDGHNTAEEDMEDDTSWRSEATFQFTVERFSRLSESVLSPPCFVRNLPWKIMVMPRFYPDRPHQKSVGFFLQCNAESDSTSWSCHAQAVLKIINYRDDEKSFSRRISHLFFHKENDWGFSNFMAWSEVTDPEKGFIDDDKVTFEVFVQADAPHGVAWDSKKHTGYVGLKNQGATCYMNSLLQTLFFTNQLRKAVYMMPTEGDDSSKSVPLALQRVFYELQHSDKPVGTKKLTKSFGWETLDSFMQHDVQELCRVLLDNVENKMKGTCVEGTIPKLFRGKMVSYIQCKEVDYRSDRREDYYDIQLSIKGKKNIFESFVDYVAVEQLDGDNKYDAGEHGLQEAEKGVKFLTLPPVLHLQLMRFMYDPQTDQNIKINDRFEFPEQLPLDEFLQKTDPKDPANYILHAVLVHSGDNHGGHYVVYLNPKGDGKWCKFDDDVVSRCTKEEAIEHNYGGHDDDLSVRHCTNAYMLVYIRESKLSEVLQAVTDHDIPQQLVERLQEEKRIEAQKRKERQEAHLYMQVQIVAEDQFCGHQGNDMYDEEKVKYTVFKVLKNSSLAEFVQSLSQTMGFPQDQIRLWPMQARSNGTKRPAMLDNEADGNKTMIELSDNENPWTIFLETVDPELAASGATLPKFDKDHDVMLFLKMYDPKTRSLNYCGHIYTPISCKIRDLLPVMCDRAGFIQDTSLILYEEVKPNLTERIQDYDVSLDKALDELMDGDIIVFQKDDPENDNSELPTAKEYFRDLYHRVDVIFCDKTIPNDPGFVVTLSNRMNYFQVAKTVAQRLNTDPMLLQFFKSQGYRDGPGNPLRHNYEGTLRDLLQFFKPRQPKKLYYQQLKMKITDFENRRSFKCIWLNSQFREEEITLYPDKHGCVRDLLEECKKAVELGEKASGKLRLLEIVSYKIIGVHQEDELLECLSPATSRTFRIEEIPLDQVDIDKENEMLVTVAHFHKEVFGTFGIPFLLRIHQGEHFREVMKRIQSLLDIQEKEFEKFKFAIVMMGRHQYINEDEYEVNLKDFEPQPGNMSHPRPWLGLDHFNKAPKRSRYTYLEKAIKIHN

inhibition [1]	pIC50 [2]	Compound
> 95%		NS(=O)(=O)c1cncc(-c2nc(NCc3ccccc3)c3c(-c4ccccc4)ccn3n2)c1
	> 6.70	C[C@H](CC(=O)N1CCC(O)(Cn2cnn3cccc3c2=O)CC1)c1ccccc1
